According to patent US11613542B2, “Sulfonylureas and sulfonylthioureas as NLRP3 inhibitors” (Inflazome Limited, priority 2017, dated 2023):
Structures can show the parent of a compound that is named as a salt.

How the values were obtained:
NLRP3 [1] = biological target: T1, NLRP3 (Homo sapiens, UniProt Q96P20); assay: THP-1 cells pyroptosis assay; type: cell-based; parameters: Seed THP-1 cells (25,000 cells/well) containing 1.0 μg/ml LPS; host or cells: THP-1 cells, LPS-primed, nigericin-stimulated
In short: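 THP-1 cells (25,000/well) in serum-free RPMI with 1.0 μg/ml LPS, treated with compound (8-point half-log dilution, 10 μM top, 0.1% DMSO), then nigericin 5 μM final. Viability read by resazurin (100 μM final, 1-2 h, 37° C) fluorescence Ex 560/Em 590 nm; IC50 from 4-parameter variable-slope fit.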

NLRP3 [2] = biological target: T1, NLRP3; assay: Human whole blood IL1β release assay; type: cell-based; parameters: Human whole blood in Li-heparin tubes was obtained from healthy donors; from tissue; host or cells: human whole blood from healthy donors, LPS-primed, nigericin-stimulated
In short: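 Healthy-donor human whole blood (Li-heparin) primed with 1 μg/ml LPS, with compound (8-point half-log, 10 μM top) or 0.1% DMSO for 3 h at 37 °C, then 10 μM nigericin (final) for 1 h. Supernatant IL-1β read by AlphaLISA; IC50 from 4-parameter variable-slope fit.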

[3] = THP-1 cells, 1.0 μg/ml LPS, compound 3 hrs, nigericin 5 μM 1 hr, resazurin readout, read-out: THP IC50
[4] = human whole blood, 1 μg/ml LPS, compound 3 hrs, nigericin 10 μM 1 hr, IL-1β AlphaLisa, read-out: HWB IC50

T1 sequence (Q96P20 whole entry): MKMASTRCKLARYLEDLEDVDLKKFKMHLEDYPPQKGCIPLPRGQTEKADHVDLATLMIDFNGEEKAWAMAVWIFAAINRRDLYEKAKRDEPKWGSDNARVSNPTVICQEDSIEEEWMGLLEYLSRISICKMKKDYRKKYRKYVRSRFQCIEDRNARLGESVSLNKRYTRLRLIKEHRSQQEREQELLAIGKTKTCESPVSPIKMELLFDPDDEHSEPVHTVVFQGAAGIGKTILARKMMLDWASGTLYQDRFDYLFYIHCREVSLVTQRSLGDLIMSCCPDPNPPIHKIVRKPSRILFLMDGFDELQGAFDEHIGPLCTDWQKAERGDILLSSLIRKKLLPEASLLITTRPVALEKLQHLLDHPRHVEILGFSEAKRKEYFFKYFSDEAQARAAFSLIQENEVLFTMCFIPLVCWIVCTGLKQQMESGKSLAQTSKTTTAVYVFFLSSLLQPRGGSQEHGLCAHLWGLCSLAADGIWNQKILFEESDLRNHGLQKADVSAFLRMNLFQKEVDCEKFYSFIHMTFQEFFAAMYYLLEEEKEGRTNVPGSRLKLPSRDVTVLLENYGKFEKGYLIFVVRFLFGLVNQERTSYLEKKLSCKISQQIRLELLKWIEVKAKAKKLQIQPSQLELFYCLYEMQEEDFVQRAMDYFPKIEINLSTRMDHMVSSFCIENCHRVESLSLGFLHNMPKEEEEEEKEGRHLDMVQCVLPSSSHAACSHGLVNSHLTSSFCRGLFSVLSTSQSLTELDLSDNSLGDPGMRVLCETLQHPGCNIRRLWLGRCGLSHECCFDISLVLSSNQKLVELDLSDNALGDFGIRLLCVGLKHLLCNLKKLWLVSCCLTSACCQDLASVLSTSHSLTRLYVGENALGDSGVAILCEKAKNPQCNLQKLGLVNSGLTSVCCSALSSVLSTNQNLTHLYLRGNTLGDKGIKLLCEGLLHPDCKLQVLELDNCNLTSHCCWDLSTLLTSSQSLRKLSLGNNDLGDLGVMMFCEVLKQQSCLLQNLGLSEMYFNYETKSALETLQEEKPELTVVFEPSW

Row | IC50 (NLRP3 [1]; [3]) | IC50 (NLRP3 [2]; [4]) | SMILES | IC50 (NLRP3 [1]) | IC50 (NLRP3 [2])
1 | < 640 nM | < 1600 nM | CN(CC#N)C(=O)c1cc(S(=O)(=O)NC(=O)Nc2c3c(cc4c2CCC4)CCC3)nn1C [Example 153, N-(Cyanomethyl)-3-(N-((1,2,3,5,6,7-hexahydro-s-indacen-4-yl)carbamoyl)sulfamoyl)-N,1-dimethyl-1H-pyrazole-5-carboxamide, partial ammonium salt] |  | 
2 | < 160 nM | < 3200 nM | Cn1nc(S(=O)(=O)NC(=O)Nc2c3c(cc4c2CCC4)CCC3)cc1C(=O)N1CCC1 [Example 154, 5-(Azetidine-1-carbonyl)-N-((1,2,3,5,6,7-hexahydro-s-indacen-4-yl)carbamoyl)-1-methyl-1H-pyrazole-3-sulfonamide] |  | 
3 | < 640 nM | < 800 nM | CNC(=O)c1cc(S(=O)(=O)NC(=O)Nc2c(C(C)C)cccc2C(C)C)nn1C [Example 155, 3-(N-((2,6-Diisopropylphenyl)carbamoyl)sulfamoyl)-N,1-dimethyl-1H-pyrazole-5-carboxamide] |  | 
4 | < 2560 nM | < 3200 nM | CCN(C)C(=O)c1cc(S(=O)(=O)NC(=O)Nc2c(C(C)C)cccc2C(C)C)nn1C [Example 156, 3-(N-((2,6-Diisopropylphenyl)carbamoyl)sulfamoyl)-N-ethyl-N,1-dimethyl-1H-pyrazole-5-carboxamide] |  | 
5 | < 640 nM | < 800 nM | CC(C)c1cccc(C(C)C)c1NC(=O)NS(=O)(=O)c1cc(C(=O)N(C)C(C)C)n(C)n1 [Example 158, 3-(N-((2,6-Diisopropylphenyl)carbamoyl)sulfamoyl)-N-isopropyl-N,1-dimethyl-1H-pyrazole-5-carboxamide] |  | 
6 | < 160 nM | < 3200 nM | CC(C)N(C)C(=O)c1cc(S(=O)(=O)NC(=O)Nc2c3c(cc4c2CCC4)CCC3)nn1C [Example 164, 3-(N-((1,2,3,5,6,7-Hexahydro-s-indacen-4-yl)carbamoyl)sulfamoyl)-N-isopropyl-N,1-dimethyl-1H-pyrazole-5-carboxamide] |  | 
7 | < 160 nM | < 1600 nM | CCN(CC)C(=O)c1cc(S(=O)(=O)NC(=O)Nc2c3c(cc4c2CCC4)CCC3)nn1C [Example 165, N,N-diethyl-3-(N-((1,2,3,5,6,7-Hexahydro-s-indacen-4-yl)carbamoyl)sulfamoyl)-1-methyl-1H-pyrazole-5-carboxamide] |  | 
8 | < 640 nM | < 1600 nM | CN(C)Cc1c(S(=O)(=O)NC(=O)Nc2c3c(cc4c2CCC4)CCC3)ncn1C [Example 171, 5-((Dimethylamino)methyl)-N-((1,2,3,5,6,7-hexahydro-s-indacen-4-yl)carbamoyl)-1-methyl-1H-imidazole-4-sulfonamide] |  | 
9 |  |  | CC(C)c1cc(Cl)cc(C(C)C)c1NC(=O)NS(=O)(=O)c1cc(C(=O)N(C)CCO)n(C)n1 [Example 172, 3-(N-((4-Chloro-2,6-diisopropylphenyl)carbamoyl)sulfamoyl)-N-(2-hydroxyethyl)-N,1-dimethyl-1H-pyrazole-5-carboxamide] | < 160 nM | < 1600 nM
10 | < 40 nM | < 400 nM | COc1cc(-c2ccc3c(c2NC(=O)NS(=O)(=O)c2ccn(C(C)(C)CN(C)C)n2)CCC3)ccn1 [Example 178, 1-(1-(Dimethylamino)-2-methylpropan-2-yl)-N-((5-(2-methoxypyridin-4-yl)-2,3-dihydro-1H-inden-4-yl)carbamoyl)-1H-pyrazole-3-sulfonamide] |  | 
11 | < 160 nM | < 800 nM | CN(C)CCn1ccc(S(=O)(=O)NC(=O)Nc2c3c(cc4c2CCC4)CC=C3)n1 [Example 181, 1-(2-(Dimethylamino)ethyl)-N-((1,2,3,7-tetrahydro-s-indacen-4-yl)carbamoyl)-1H-pyrazole-3-sulfonamide, potassium salt] |  | 
12 | < 160 nM | < 1600 nM | CN(C)CC(C)(C)n1cc(S(=O)(=O)NC(=O)Nc2c3c(cc4c2CCC4)CCC3)cn1 [Example 183, 1-(1-(Dimethylamino)-2-methylpropan-2-yl)-N-((1,2,3,5,6,7-hexahydro-s-indacen-4-yl)carbamoyl)-1H-pyrazole-4-sulfonamide] |  | 
13 | < 160 nM | < 400 nM | CC(C)(C#N)n1ccc(S(=O)(=O)NC(=O)Nc2c(-c3ccnc(OC(F)F)c3)ccc3c2CCO3)n1 [Example 189, 1-(2-Cyanopropan-2-yl)-N-((5-(2-(difluoromethoxy)pyridin-4-yl)-2,3-dihydrobenzofuran-4-yl)carbamoyl)-1H-pyrazole-3-sulfonamide] |  | 
14 | < 160 nM | < 400 nM | COc1cc(-c2ccc3c(c2NC(=O)NS(=O)(=O)c2ccn(C(C)(C)C#N)n2)CCO3)ccn1 [Example 190, 1-(2-Cyanopropan-2-yl)-N-((5-(2-methoxypyridin-4-yl)-2,3-dihydrobenzofuran-4-yl)carbamoyl)-1H-pyrazole-3-sulfonamide] |  | 
15 | < 40 nM | < 400 nM | CNCC(C)(C)n1ccc(S(=O)(=O)NC(=O)Nc2c(-c3ccnc(OC)c3)ccc3c2CCC3)n1 [Example 191, N-((5-(2-Methoxypyridin-4-yl)-2,3-dihydro-1H-inden-4-yl)carbamoyl)-1-(2-methyl-1-(methylamino)propan-2-yl)-1H-pyrazole-3-sulfonamide, sodium salt] |  | 
16 | < 160 nM | < 400 nM | CN(C)CC(C)(C)n1ccc(S(=O)(=O)NC(=O)Nc2c(-c3ccnc(OC4CC4)c3)ccc3c2CCO3)n1 [Example 192, N-((5-(2-Cyclopropoxypyridin-4-yl)-2,3-dihydrobenzofuran-4-yl)carbamoyl)-1-(1-(dimethylamino)-2-methylpropan-2-yl)-1H-pyrazole-3-sulfonamide, sodium salt] |  | 
17 | < 40 nM | < 400 nM | COc1cc(-c2ccc3c(c2NC(=O)NS(=O)(=O)c2ccn(C4CCN(C)C4)n2)CCC3)ccn1 (stereo not shown) [Example 193, N-((5-(2-Methoxypyridin-4-yl)-2,3-dihydro-1H-inden-4-yl)carbamoyl)-1-(1-methylpyrrolidin-3-yl)-1H-pyrazole-3-sulfonamide, sodium salt] |  | 
18 | < 40 nM | < 400 nM | CN(C)CC(C)(C)n1ccc(S(=O)(=O)NC(=O)Nc2c(-c3ccnc(OC4CC4)c3)ccc3c2CCC3)n1 [Example 194, N-((5-(2-Cyclopropoxypyridin-4-yl)-2,3-dihydro-1H-inden-4-yl)carbamoyl)-1-(1-(dimethylamino)-2-methylpropan-2-yl)-1H-pyrazole-3-sulfonamide, sodium salt] |  | 
19 | < 40 nM | < 400 nM | COc1cc(-c2ccc3c(c2NC(=O)NS(=O)(=O)c2ccn(C(C)(C)C#N)n2)CCC3)ccn1 [Example 195, 1-(2-Cyanopropan-2-yl)-N-((5-(2-methoxypyridin-4-yl)-2,3-dihydro-1H-inden-4-yl)carbamoyl)-1H-pyrazole-3-sulfonamide, sodium salt] |  | 
20 | < 40 nM | < 400 nM | CN(C)CC(C)(C)n1ccc(S(=O)(=O)NC(=O)Nc2c(-c3ccnc(C#N)c3)ccc3c2CCC3)n1 [Example 196, N-((5-(2-Cyanopyridin-4-yl)-2,3-dihydro-1H-inden-4-yl)carbamoyl)-1-(1-(dimethylamino)-2-methylpropan-2-yl)-1H-pyrazole-3-sulfonamide] |  | 
21 | < 640 nM | < 400 nM | CN(C)CC(C)(C)n1ccc(S(=O)(=O)NC(=O)Nc2c(-c3cccnc3)ccc3c2CCC3)n1 [Example 197, 1-(1-(Dimethylamino)-2-methylpropan-2-yl)-N-((5-(pyridin-3-yl)-2,3-dihydro-1H-inden-4-yl)carbamoyl)-1H-pyrazole-3-sulfonamide] |  | 
22 | < 640 nM | < 800 nM | C[C@H](CN(C)C)n1ccc(S(=O)(=O)NC(=O)Nc2c3c(cc4c2CCC4)CCC3)n1 [Example 198, (R)-1-(1-(Dimethylamino)propan-2-yl)-N-((1,2,3,5,6,7-hexahydro-s-indacen-4-yl)carbamoyl)-1H-pyrazole-3-sulfonamide] |  | 
23 | < 640 nM | < 1600 nM | CN(C)CCn1ncc(S(=O)(=O)NC(=O)Nc2c3c(cc4c2CCC4)CCC3)n1 [Example 199, 2-(2-(Dimethylamino)ethyl)-N-((1,2,3,5,6,7-hexahydro-s-indacen-4-yl)carbamoyl)-2H-1,2,3-triazole-4-sulfonamide] |  | 
24 | < 160 nM | < 400 nM | CN(C)CC1(n2ccc(S(=O)(=O)NC(=O)Nc3c4c(cc5c3CCC5)CCC4)n2)CC1 [Example 202, 1-(1-((Dimethylamino)methyl)cyclopropyl)-N-((1,2,3,5,6,7-hexahydro-s-indacen-4-yl)carbamoyl)-1H-pyrazole-3-sulfonamide] |  | 
25 | < 160 nM | < 800 nM | CNCC(C)(C)n1ccc(S(=O)(=O)NC(=O)Nc2c3c(cc4c2CCC4)CCC3)n1 [Example 204, N-((1,2,3,5,6,7-Hexahydro-s-indacen-4-yl)carbamoyl)-1-(2-methyl-1-(methylamino)propan-2-yl)-1H-pyrazole-3-sulfonamide, sodium salt] |  | 
26 | < 40 nM | < 1600 nM | CN1CCC(n2ccc(S(=O)(=O)NC(=O)Nc3c4c(cc5c3CCC5)CCC4)n2)C1 (stereo not shown) [Example 205, N-((1,2,3,5,6,7-Hexahydro-s-indacen-4-yl)carbamoyl)-1-(1-methylpyrrolidin-3-yl)-1H-pyrazole-3-sulfonamide, sodium salt] |  | 
